Publication PMC8998803, “Fragment-Based Discovery of AF9 YEATS Domain Inhibitors” (International Journal of Molecular Sciences, 2022)

Key:
[1] = biological target: T1, AF9 YEATS domain (Homo sapiens, UniProt P42568); assay: Isothermal titration calorimetry with AF9 YEATS domain; assay type: binding
T1 construct: DNA fragment encoding AF9 YEATS domain (residues 1–138) was amplified and cloned into the pET28a vector; made in house; host or cells: Escherichia coli BL21 (DE3)
T1 sequence (P42568 1-138): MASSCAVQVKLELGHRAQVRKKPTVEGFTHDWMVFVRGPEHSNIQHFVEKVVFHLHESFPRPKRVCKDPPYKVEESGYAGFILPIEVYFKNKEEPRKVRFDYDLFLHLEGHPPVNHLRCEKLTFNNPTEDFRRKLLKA
Text: (§1) To further validate the results of ligand-observed fragment-based screening, we titrated these hits with the ^15N-labeled AF9 YEATS domain (Figure 1B). The backbone chemical shift assignment was retrieved from the literature. […] These residues were then mapped to the surface of the crystal structure of the AF9 YEATS domain in complex with H3K9ac (PDB code: 4TMP), which indicated the binding of these hits to the same pocket for acyl-lysine recognition (Figure 1D). The binding affinity of hit 2 was then determined by best fitting the dose-dependent CSPs of these residues (Figure 1E) at 0.07 ± 0.01 mM (fitting error was used henceforth unless specifically annotated). The affinity of hit 2 was further validated using isothermal titration calorimetry (ITC) (Figure 1F). The binding affinity of the other hits was determined using the same approach (Table 1). These four hits probably bound to the same pocket since they shared the same pharmacophore.
All ITC titrations were carried out on a MicroCal ITC200 calorimeter (Malvern Instruments Ltd., Malvern, UK) at 298K. The AF9 YEATS domain protein was dialyzed to 20 mM Tris buffer containing 150 mM NaCl at pH 7.4. The concentration of the protein was determined by UV-Vis spectroscopy. The compounds were dried and dissolved in the same buffer. The concentrations of compounds were determined using quantitative NMR30. The ITC data were analyzed using Origin 2019 and best-fitted to the one-site binding model to determine the enthalpies and affinity constants. The binding entropies were calculated using the Gibbs free energy equation.

[2] = biological target: T1, AF9 YEATS domain; assay: NMR chemical shift perturbation titration of 15N-labeled AF9 YEATS domain; assay type: binding; conditions: for Kd: from dose-dependent chemical shift perturbations, ± fitting error; for LE: ligand efficiency, Table 1
Text: as §1
The ^15N-labeled AF9 YEATS domain was concentrated to 0.1 mM in phosphate buffered saline at pH 6.8. The HSQC spectra were acquired on the Agilent 500 MHz spectrometer at a ligand/protein molar ratio varying from 0 to 8.0. The dissociation constant Kd was best-fitted using the following equation assuming a 1:1 binding mode, Δδobs=ΔδmaxPt+Lt+Kd−Pt+Lt+Kd^2−4PtLt/2Pt where Pt and Lt represented the total concentrations of the protein and the ligand, respectively, and the Δδobs denoted the observed chemical shift changes relative to the free-form protein. Δδobs was defined as 1/2δH2+0.04δN2 , where δH and δN were the chemical shift changes in the ^1H and ^15N dimension, respectively. The maximum of the chemical shift perturbations Δδmax and the dissociation constant Kd were best-fitted from the dose-dependent chemical shift changes

[3] = tested on: the rest of the 59 cell lines; parameters: method as in PMID 30288907; conditions: cited from earlier work
[4] = tested on: MCF7; parameters: method as in PMID 30288907; conditions: cited from earlier work
[5] = tested on: NCL-H1975 cells; assay: Cell viability, NCL-H1975; assay type: cell-based; conditions: single dose of 100 μM; AF9-sensitive cell line
[6] = tested on: HGC-27 cells; assay: Cell Counting Kit-8 (CCK-8) cell viability assay, HGC-27; conditions: AF9-sensitive HGC-27 cells
Protocol: (§4) We further assessed the cellular activity of these inhibitors in cancer cells.
(§5) Human MCF7 and HGC-27 cell lines were cultured at 37 °C in a humidified 5% CO2 atmosphere in DMEM (Gibco, Stony Plain, AB, Canada) medium supplemented with 10% fetal bovine serum (FBS) (Gibco) and 1 × penicillin/streptomycin (Gibco). MCF7 and HGC-27 cells were seeded in 96-well plates with approximately 10^4 cells in 100 μL of the medium and treated with the following conditions: fresh culture medium with DMSO (control) or fresh culture medium with inhibitors at a concentration of 100 μM. Cell viability was measured using a Cell Counting Kit-8 (Purchased from TargetMol, Boston, MA, USA) according to manufacturer’s instructions [45]. The absorbance was read at 450 nm with a microplate reader (CLARIOstar, BMG LABTECH, Ortenberg, Germany). Cell viability was calculated as the ratio of experimental group absorbance vs. control group absorbance.

[7] = biological target: T2, YEATS2 YEATS domain (Homo sapiens, UniProt Q9ULM3); assay: NMR chemical shift perturbation titration of 15N-labeled YEATS2 YEATS domain; assay type: binding
T2 construct: Chemical shift perturbations of the ^15N-labeled YEATS2 YEATS domain induced by 10
T2 sequence (Q9ULM3 200-345 limits assumed): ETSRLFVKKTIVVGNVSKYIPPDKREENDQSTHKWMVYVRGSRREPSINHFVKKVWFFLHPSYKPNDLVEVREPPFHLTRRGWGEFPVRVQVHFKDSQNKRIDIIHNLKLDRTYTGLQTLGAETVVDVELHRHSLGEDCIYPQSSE
Protocol: (§2) It is, therefore, difficult to achieve a high selectivity between AF9 and ENL YEATS domains, as underscored by the similar affinity of compound 10 to both AF9 and ENL (38 ± 6 μM) determined by CSPs (Figure 4C), even though compound 10 represented a new chemotype with a binding mode distinct from that of SGC-iMLLT (Figure 4B). […] Therefore, compound 10 was a dual inhibitor of AF9/ENL YEATS domains.
(§3) Figure 4 Selectivity analysis of AF9 inhibitors among human YEATS domains and antiproliferation activities. (A) Sequence alignment of human YEATS domains. Conserved residues are highlighted, with residues interacting with H3K9ac annotated. (B) Superimposition of AF9 and ENL YEATS domain structures in complex with 10 (carbon atom in magenta) and SGC-iMLLT (PDB code: 6HT1), respectively. The hydrogen bonds are delineated by dashed lines. (C) The binding affinity of 10 determined from the dose-dependent chemical shift perturbations of ENL YEATS. The Kd value with the fitting error is annotated. (D) Chemical shift perturbations of the ^15N-labeled YEATS2 YEATS domain induced by 10. (E) The binding affinity of 10 estimated from best fitting of the dose-dependent chemical shift perturbations of the YEATS2 YEATS domain. (F) Viability of MCF7 and AF9-sensitive HGC-27 cells upon treatment with inhibitors at a single dose of 100 μM. […]

[8] = tested on: MCF7 cells; assay: Cell Counting Kit-8 (CCK-8) cell viability assay, MCF7; conditions: single dose of 100 μM
Protocol: as §4, §5

[9] = biological target: T3, ENL YEATS domain (Homo sapiens, UniProt Q03111); assay: NMR chemical shift perturbation titration of ENL YEATS; assay type: binding; conditions: determined by CSPs, read-out: affinity
T3 construct: determined from the dose-dependent chemical shift perturbations of ENL YEATS
T3 sequence (Q03111 1-138 limits assumed): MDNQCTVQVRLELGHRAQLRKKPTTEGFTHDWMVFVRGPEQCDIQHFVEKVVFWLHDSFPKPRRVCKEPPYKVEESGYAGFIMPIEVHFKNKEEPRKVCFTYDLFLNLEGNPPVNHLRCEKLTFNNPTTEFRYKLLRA
Protocol: as §2, §3

## COCC(=O)Nc1ccc(Cl)c(N)c1 [Compound 2]
[1]; ITC binding enthalpy
  ΔH: -10 ± 2 kcal/mol
[1]; ITC, 1:1 binding mode, 298K
  Kd: 76 ± 10 µM
[1]; ITC, entropy calculated using the Gibbs free energy equation
  -TΔS: 4 kcal/mol
[2]
  Kd: 70 ± 10 µM
  LE: 0.41

## COCC(=O)Nc1ccc(Cl)cc1 [Compound 5]
[2]
  Kd: 80 ± 60 µM
  LE: 0.43
[2]; relative to hit 2
  change of affinity (in words): did not significantly alter the affinity

## CNC(=O)Cc1ccc(NC(=O)COC)cc1 [Compound 7]
[2]
  Kd: 270 ± 20 µM
  LE: 0.29

## O=C(COCc1ccccc1)Nc1c(F)cc(Cl)cc1F [Compound 14]
[2]; AF9 YEATS
  affinity enhancement relative to that of 10: approximately 30%
[2]
  Kd: 26 ± 4 µM
  LE: 0.30

## COCC(=O)Nc1ccc(Cl)c(O)c1 [Compound 6]
[2]
  Kd: 61 ± 4 µM
  LE: 0.41
[2]; relative to hit 2
  change of affinity (in words): did not significantly alter the affinity

## C[C@H]1CCCN1Cc1nc2cc(NC(=O)c3ccc4c(cnn4C)c3)ccc2[nH]1 [SGC-iMLLT]
[3]
  activities over the rest of the 59 cell lines (in words): almost no detectable activities
[4]
  potency in MCF7 (in words): weak potency

## O=C(COCc1ccccc1)Nc1ccc(Cl)cc1 [Compound 10]
[5]
  effect on NCL-H1975 cells (in words): demonstrated inhibitory effects
[6]
  proliferation of HGC-27 cells (in words): suppressed the proliferation of AF9-sensitive HGC-27 cells more effectively in a dose-dependent manner
[7]; chemical shift of YEATS2 only slightly disturbed
  binding affinity (in words): very weak binding affinity
[7]; estimated from best fitting of dose-dependent chemical shift perturbations
  Kd: > 200 µM
[8]
  potency in MCF7 cells (in words): weak potency
[9]
  Kd: 38 ± 6 µM
[2]
  Kd: 38 ± 6 µM
[2]; relative to hit 2
  enhancement of the affinity for the AF9 YEATS domain: approximately two-fold enhancement

## O=C(COCc1ccccc1O)Nc1ccc(Cl)cc1 [Compound 13]
[2]
  Kd: 70 ± 9 µM
  LE: 0.28

## COCC(=O)Nc1ccc(C)c(N)c1 [Compound 1]
[2]
  Kd: 137 ± 24 µM
  LE: 0.38

## O=C(COc1ccccc1)Nc1ccc(Cl)cc1 [Compound 11]
[2]
  Kd: 88 ± 30 µM
  LE: 0.31

## COCC(=O)Nc1ccc(CNC(C)=O)cc1 [Compound 8]
[2]
  Kd: 310 ± 4 µM

## COCC(=O)Nc1ccc(N)cc1C [Compound 4]
[2]
  Kd: 440 ± 100 µM
  LE: 0.33

## CNCC(=O)Nc1ccc(CNC(C)=O)cc1 [Compound 9]
[2]
  Kd: 660 ± 70 µM
  LE: 0.26

## COCC(=O)Nc1ccc(N)cc1Cl [Compound 3]
[2]
  Kd: 100 ± 10 µM
  LE: 0.39

## O=C(COCc1ccc(F)cc1)Nc1ccc(Cl)cc1 [Compound 12]
[2]
  Kd: 87 ± 11 µM
  LE: 0.28
